Reference: patent publication US20130225675A1, “BACTERIAL CONTROL OF WATER BASED FLUIDS DURING […] AND […] TIME IN THE SU[…]” (SCHLUMBERGER TECHNOLOGY CORPORATION, priority 2010, published 2013)

System: Sulfate-Reducing Bacteria
Assay: Qualitative test kit specific to sulfate-reducing bacteria, produced water samples
Type: cell-based
Settings: produced water from the Piceance basin, 250 ppm glutaraldehyde, "Glut+butenolide" with a further 125 ppm butenolide
Description: Produced water samples from the Piceancebasin were tested for bacterial content in a simple qualitative test kit manufactured by “Droycon Boiconcepts Inc., specific to Sulfate-Reducing Bacteria. Three kits were used, labeled “No treatment”, “Glutaraldehyde”, and “Glut+butenolide”. The latter two bottles were treated with 250 ppm glutaraldehyde.
FIG. 1 is a photograph series that compares the experimental results of testing the effectiveness of biocide compositions.

## O=CCCCC=O [Glutaraldehyde, glutaraldehyde]
After 14 days
  appearance of the test bottle (black residues characteristic of the presence of SRBs): clear and pale yellow
After 17 days
  appearance of the test bottle (re-growth of SRBs, fine black residues): begun to show re-growth of SRBs
